Test results published in US6528276B1, “Fusion proteins, DNA molecules, vectors, and host cells useful for measuring protease activity” (priority 1998, dated 2003).

Assays:
[1] = tested on: fusion protein EdR5A/5B (i.e., the protein encoded by VgRXR-5A/5B); assay: Ligand-induced activation of the VgRXR-5A/5B fusion protein, luciferase reporter in COS cells without protease; type: cell-based
Procedure: (§1) COS African green monkey kidney cells were plated at approximately 150,000 cells/well in a 6-well plate. The next day, approximately 3.6 μg plasmid DNA was dissolved in 100 μl of Dulbecco's modified Eagle's media-Gibco BRL (DMEM), combined with 29 μl of Superfect reagent (Qiagen), and then mixed by pipetting. The mixture was incubated at room temperature for ten minutes.
(§2) The amounts of DNA typically used in each experiment was as follows: 0.6 μg of pIND-Luc, 0.6 μg of pVgRXR-5A/5B or pVgRXR-5A**5B, and 0-2.4 μg of pSRα-NS3-4A or pSRα-NS3-4A(S1165A) or pSRα.
(§3) Next 600 μl of DMEM with v/v 10% fetal bovine serum (10% FBS-DMEM) was added to the DNA mixture and mixed by pipetting. The cells in the 6-well plate were washed with 2.5 ml phosphate-buffered saline (PBS). The PBS was removed from the cells and replaced by the DNA mixture. The cells were incubated in the DNA mixture for three hours at 37° C. in a 5% CO2 incubator.
After incubation, the cells were washed with PBS. The PBS was removed and 10% FBS-DMEM was added to the cells. The cells were incubated in 10% FBS-DMEM overnight at 37° C. in a 5% CO2 incubator.
On the next day, an exogenous ligand was added to the cells to induce transcription of the reporter gene. Specifically, the 10% FBS-DMEM was aspirated off the cells and replaced with a 10% FBS-DMEM solution containing a concentration of 1-10 μM muristerone A or 1-10 μM ponasterone A (Invitrogen, United Kingdom). In some cases, a protease inhibitor dissolved in dimethylsulfoxide(DMSO) was also added to the cells for a final concentration of 1-40 μM. The cells were incubated with muristerone A or ponasterone A for 24 hours at 37° C. in a 5% CO2 incubator.
The following day, the cells were washed with PBS. The activity of the luciferase protein was measured using a luciferase assay kit (Promega). Specifically, the cells were lysed in 250 μl of Cell Culture Lysis Reagent. The cells were scraped from the plate and transferred to a microfuge tube. The extract was spun at 12,000×g for 5 seconds. Twenty microliters of each sample was added to 100 μl of Luciferase Assay Reagent. The light produced by the reaction of the luciferase with the Reagent was measured in a luminometer and was reported as relative light units (RLU).
The plasmid pIND-Luc (0.6 μg) was cotransfected with pVgRXR-5A/5B (0.6 μg) in the absence or presence of 1.8 μg of pSRαNS3-4A. On the following day, the cells were incubated with varying amounts of ponasterone A, a ligand which induces the neterodimerization of ecdysone receptor with the mammalian […], RXR. The cells were lysed and assayed for luciferase activity as described previously. The results are depicted in FIG. 7. […]

[2] = tested on: pIND-Luc luciferase reporter; assay: Muristerone A-induced transactivation of pIND-Luc by expressed fusion proteins in COS cells; type: cell-based, African green monkey; settings: 1 μM muristerone A
Procedure: as §1, §2, §3
After incubation, the cells were washed with PBS. The PBS was removed and 10% FBS-DMEM was added to the cells. […]
The following day, the cells were washed with PBS. The activity of the luciferase protein was measured using a luciferase assay kit (Promega). […] The light produced by the reaction of the luciferase with the Reagent was measured in a luminometer and was reported as relative light units (RLU). […]

C[S+](C)[O-] [DMSO, dimethylsulfoxide]
effect on ponasterone A-induced luciferase activity ([1]; DMSO concentrations up to 1% (v/v), 5 μM ponasterone A, with or without pSRαNS3-4A): little or no effect

CC(C)CC[C@@H](O)[C@](C)(O)[C@H]1CC[C@@]2(O)C3=CC(=O)[C@@H]4C[C@@H](O)[C@@H](O)C[C@]4(C)[C@H]3CC[C@]12C [ponasterone A]
activation of the fusion protein ([1]; absence of the protease NS3-4A): effective at activating the fusion protein
induction of transcription compared with muristerone A ([1]; in these assays): equally effective
ponasterone A concentration giving greatest activation of the fusion protein ([1]; tested at 1, 3.3, 10, 33, 100 μM, COS cells): 3.3 to 10 µM

B1: pVgRXR-5A(Stop)5B: control fusion protein with tandem stop codons in the 5A/5B cleavage site (SEQ ID NO:22) (protein)
chain: MAPPTDVSLGDELHLDGEDVAMAHADALDDFDLDMLGDGDSPGPGFTPHDSAPYGALDMADFEFEQMFTDALGIDEYGGKLLGTGADTEDVVCC
muristerone A-induced luciferase activity of the expressed fusion protein ([2]; 24 hours, no protease, FIG. 4): negligible activity

B2: VgRXR: Invitrogen vector product: modified ecdysone receptor/VP16 fusion (VgEcR) plus RXR (protein)
chain: TPTTPLHLQQNLGGAGGGGIGGMGILHHANGTPNGLIGVVGGGGGVGLGVGGGGVGGLGMQHTPRSDSVNSISSGRDDLSPSSSLNGYSANESCDAKKSKKGPAPRVQEELCLVCGDRASGYHYNALTCEGCKGFFRRSVTKSAVYCCKFGRACEMDMYMRRKCQECRLKKCLAVGMRPECVVPENQCAMKRREKKAQKEKDKMTTSPSSQHGGNGSLASGGGQDFVKKEILDLMTCEPPQHATIPLLPDEILAKCQARNIPSLTYNQLAVIYKLIWYQDGYEQPSEEDLRRIMSQPDENESQTDVSFRHITEITILTVQLIVEFAKGLPAFTKIPQEDQITLLKACSSEVMMLRMARRYDHSSDSIFFANNRSYTRDSYKMAGMADNIEDLLHFCRQMFSMKVDNVEYALLTAIVIFSDRPGLEKAQLVEAIQSYYIDTLRIYILNRHCGDSMSLVFYAKLLSILTELRTLGNQNAEMCFSLKLKNRKLPKFLEEIWDVHAIPPSVQSHLQITQEENERLERAERMRASVGGAITAGIDCDSASTSAAAAAAQHQPQPQPQPQPSSLTQNDSQHQTQPQLQPQLPPQLQGQLQPQLQPQLQTQLQPQIQPQPQLLPVSAPVPASVTAPGSLSAVSTSSEYMGGSAAIGPITPATTSSITAAVTASSTTSAVPMGNGVGVGVGVGGNVSMYANAQTAMALMGVALHSHQEQLIGGVAVKSEHSTTA
modifications: left off: large carriers
notes: Invitrogen vector product: modified ecdysone receptor/VP16 fusion (VgEcR) plus RXR
change in luciferase activity when coexpressed with the protease NS3-4A ([2]; increasing amounts of pSRαNS3-4A): little or no change
